Tests used:
[1] = system: Erysiphe graminis f. sp. tritici; assay: Test A: wheat powdery mildew, preventive spray on wheat seedlings, disease rating; format: in vivo, Erysiphe graminis f. sp. tritici (on wheat seedlings); details: 200 ppm test suspension sprayed to run-off (equivalent to 500 g/ha) on wheat seedlings; 100 = 100% disease control, 0 = no control; # = significant activity
How it was run: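 Compounds at 200 ppm (acetone 3%, 250 ppm Trem 014 in water; equivalent to 500 g/ha) sprayed to run-off on wheat seedlings, inoculated with spore dust the following day. Plants held at 20° C. for 7 days, then rated 0–100% disease control relative to untreated controls.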

Puccinia recondita = assay: Test B: wheat leaf rust, preventive spray on wheat seedlings, disease rating; format: in vivo, Puccinia recondita (on wheat seedlings); details: 200 ppm test suspension sprayed to run-off (equivalent to 500 g/ha) on wheat seedlings; 100 = 100% disease control, 0 = no control; # = significant activity
How it was run: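 Wheat seedlings were sprayed to run-off with 200 ppm suspensions (≈500 g/ha; 3% acetone, 250 ppm Trem 014) and inoculated with Puccinia recondita spores the next day. Plants were held 24 h saturated at 20 °C, then 6 days at 20 °C. Disease control was rated 0-100 relative to untreated controls.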

Pyricularia oryzae = format: in vivo, Pyricularia oryzae (on rice seedlings); details: 200 ppm test suspension sprayed to run-off (equivalent to 500 g/ha) on rice seedlings; 100 = 100% disease control, 0 = no control; # = significant activity
Phytophthora infestans = format: in vivo, Phytophthora infestans (on tomato seedlings); details: 200 ppm test suspension sprayed to run-off (equivalent to 500 g/ha) on tomato seedlings; 100 = 100% disease control, 0 = no control; # = significant activity
Botrytis cinerea = assay: Test E: gray mold, preventive spray on cucumber seedlings, disease rating; format: in vivo, Botrytis cinerea (on cucumber seedlings); details: 200 ppm test suspension sprayed to run-off (equivalent to 500 g/ha) on cucumber seedlings; 100 = 100% disease control, 0 = no control; # = significant activity
How it was run: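 Cucumber seedlings sprayed to run-off with 200 ppm suspension (equivalent to 500 g/ha), inoculated next day with B. cinerea spores. Kept 48 h saturated at 20 °C, then 5 days in growth chamber at 20 °C; disease control rated 0–100 relative to controls.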

SMILES	Test A disease control rating (wheat powdery mildew) [1]	Test B disease control rating (wheat leaf rust) (Puccinia recondita)	Test C disease control rating (rice blast) (Pyricularia oryzae)	Test D disease control rating (potato and tomato late blight) (Phytophthora infestans)	Test E disease control rating (gray mold) (Botrytis cinerea)
CC(COc1cc(Cl)ccc1C#N)NC(=O)C1(C)CC(C)(Cl)C1 (stereo not drawn) [compound 46]	63%	28%	91# %	43%	0 (a rating of 0 indicates no disease control (relative to the controls))
CC(COc1cc(Br)ccc1C#N)NC(=O)C1(C)CC(C)(Cl)C1 (stereo not drawn) [compound 47]	97# %	25%	94# %	26%	0 (a rating of 0 indicates no disease control (relative to the controls))
CC(COc1cc(Br)ccc1C#N)NC(=O)C1(C)CC(C)(Cl)C1 (stereo not drawn) [compound 48]	96# %	85# %	99# %	47%	0 (a rating of 0 indicates no disease control (relative to the controls))
CC(COc1cc(F)ccc1Cl)NC(=O)C1(C)CC(C)(Cl)C1 (stereo not drawn) [compound 49]	98# %	0 (a rating of 0 indicates no disease control (relative to the controls))	100# (a rating of 100 indicates 100% disease control)	0 (a rating of 0 indicates no disease control (relative to the controls))	0 (a rating of 0 indicates no disease control (relative to the controls))
CC(COc1cc(F)ccc1Cl)NC(=O)C1(C)CC(C)(Cl)C1 (stereo not drawn) [compound 50]	54%	0 (a rating of 0 indicates no disease control (relative to the controls))	94# %	0 (a rating of 0 indicates no disease control (relative to the controls))	0 (a rating of 0 indicates no disease control (relative to the controls))
CC(COc1cc(Cl)ccc1F)NC(=O)C1(C)CC(C)(Cl)C1 (stereo not drawn) [compound 51]	83# %	0 (a rating of 0 indicates no disease control (relative to the controls))	100# (a rating of 100 indicates 100% disease control)	0 (a rating of 0 indicates no disease control (relative to the controls))	0 (a rating of 0 indicates no disease control (relative to the controls))
CC(COc1cc(Cl)ccc1F)NC(=O)C1(C)CC(C)(Cl)C1 (stereo not drawn) [compound 52]	83# %	0 (a rating of 0 indicates no disease control (relative to the controls))	100# (a rating of 100 indicates 100% disease control)	0 (a rating of 0 indicates no disease control (relative to the controls))	0 (a rating of 0 indicates no disease control (relative to the controls))
CC(COc1cc(Cl)ccc1F)NC(=O)C1(C)CC(C)(Br)C1 (stereo not drawn) [compound 53]	100# (a rating of 100 indicates 100% disease control)	0 (a rating of 0 indicates no disease control (relative to the controls))	100# (a rating of 100 indicates 100% disease control)	0 (a rating of 0 indicates no disease control (relative to the controls))	0 (a rating of 0 indicates no disease control (relative to the controls))
CC(COc1cc(Cl)ccc1F)NC(=O)C1(C)CC(C)(Br)C1 (stereo not drawn) [compound 54]	24%	0 (a rating of 0 indicates no disease control (relative to the controls))	97# %	0 (a rating of 0 indicates no disease control (relative to the controls))	0 (a rating of 0 indicates no disease control (relative to the controls))
CC(COc1cc(F)ccc1Cl)NC(=O)C1(C)CC(C)(Br)C1 (stereo not drawn) [compound 55]	83# %	0 (a rating of 0 indicates no disease control (relative to the controls))	74%	0 (a rating of 0 indicates no disease control (relative to the controls))	0 (a rating of 0 indicates no disease control (relative to the controls))
CC(COc1cc(F)ccc1Cl)NC(=O)C1(C)CC(C)(Br)C1 (stereo not drawn) [compound 56]	99# %	0 (a rating of 0 indicates no disease control (relative to the controls))	100# (a rating of 100 indicates 100% disease control)	0 (a rating of 0 indicates no disease control (relative to the controls))	0 (a rating of 0 indicates no disease control (relative to the controls))
CC(COc1cc(F)ccc1F)NC(=O)C1(C)CC(C)(Br)C1 (stereo not drawn) [compound 57]	90# %	0 (a rating of 0 indicates no disease control (relative to the controls))	86# %	0 (a rating of 0 indicates no disease control (relative to the controls))	0 (a rating of 0 indicates no disease control (relative to the controls))
CC(COc1cc(F)ccc1F)NC(=O)C1(C)CC(C)(Br)C1 (stereo not drawn) [compound 58]	72%	0 (a rating of 0 indicates no disease control (relative to the controls))	97# %	0 (a rating of 0 indicates no disease control (relative to the controls))	0 (a rating of 0 indicates no disease control (relative to the controls))
COc1cc(Br)ccc1C(C)NC(=O)C1(C)CC(C)(Cl)C1 (stereo not drawn) [compound 59]	0 (a rating of 0 indicates no disease control (relative to the controls))	85# %	100# (a rating of 100 indicates 100% disease control)	23%	0 (a rating of 0 indicates no disease control (relative to the controls))
COc1cc(Br)ccc1C(C)NC(=O)C1(C)CC(C)(Cl)C1 (stereo not drawn) [compound 60]	0 (a rating of 0 indicates no disease control (relative to the controls))	0 (a rating of 0 indicates no disease control (relative to the controls))	100# (a rating of 100 indicates 100% disease control)	23%	0 (a rating of 0 indicates no disease control (relative to the controls))
CC(NC(=O)C1(C)CC(Cl)(CCl)C1)c1ccc(Br)cc1 (stereo not drawn) [compound 61]	0 (a rating of 0 indicates no disease control (relative to the controls))	0 (a rating of 0 indicates no disease control (relative to the controls))	100# (a rating of 100 indicates 100% disease control)	96# %	0 (a rating of 0 indicates no disease control (relative to the controls))
CC(NC(=O)C1(C)CC(Cl)(CCl)C1)c1ccc(Br)cc1 (stereo not drawn) [compound 62]	0 (a rating of 0 indicates no disease control (relative to the controls))	0 (a rating of 0 indicates no disease control (relative to the controls))	97# %	84# %	0 (a rating of 0 indicates no disease control (relative to the controls))
CC(NC(=O)C1(C)CC(Cl)(CCl)C1)c1ccc2ccccc2c1 (stereo not drawn) [compound 63]	0 (a rating of 0 indicates no disease control (relative to the controls))	0 (a rating of 0 indicates no disease control (relative to the controls))	53%	37%	0 (a rating of 0 indicates no disease control (relative to the controls))

Source: patent publication US6504058B1 (priority 1997, dated 2003)
